From US20240148821A1, “PHARMACEUTICAL USE OF CYCLIC PEPTIDE COMPOUND” (CHUGAI SEIYAKU KABUSHIKI KAISHA, priority 2021, published 2024)
pIC50: −log10 of the molar value. Bridge positions count the residues as written; N and C are the ends. Square brackets hold non-standard residues; d marks the D form. Peptide text beside a SMILES is read from it. * marks the point of attachment. hPhe(3,5-F2-4-CF3) = N[C@@H](CCc1cc(F)c(C(F)(F)F)c(F)c1)C(=O)O; hPhe(3-Cl-4-CF3) = N[C@@H](CCc1ccc(C(F)(F)F)c(Cl)c1)C(=O)O; NMePhe(4-CF3) = CN[C@@H](Cc1ccc(C(F)(F)F)cc1)C(=O)O; Piperazinyl(4-(3-oxetanyl)) = C1OCC1N1CCN(*)CC1; NMeAbu(4,4,4-F3) = CN[C@@H](CC(F)(F)F)C(=O)O; NMePhe(3-Cl) = CN[C@@H](Cc1cccc(Cl)c1)C(=O)O; NMePhe(4-Cl) = CN[C@@H](Cc1ccc(Cl)cc1)C(=O)O; NMePhe(2-F) = CN[C@@H](Cc1ccccc1F)C(=O)O; Phe(3-Br) = N[C@@H](Cc1cccc(Br)c1)C(=O)O; NMeGly(cPent) = CN[C@H](C(=O)O)C1CCCC1; Phe(3-I) = N[C@@H](Cc1cccc(I)c1)C(=O)O; Pro(4,4-F2) = O=C(O)[C@@H]1CC(F)(F)CN1; NMeY = CN[C@@H](Cc1ccc(O)cc1)C(=O)O; NMeCha = CN[C@@H](CC1CCCCC1)C(=O)O; NMehLeu = CN[C@@H](CCC(C)C)C(=O)O; NMeChg = CN[C@H](C(=O)O)C1CCCCC1; NMeF = CN[C@@H](Cc1ccccc1)C(=O)O; NMeI = CC[C@H](C)[C@H](NC)C(=O)O; NMeD = CN[C@@H](CC(=O)O)C(=O)O; NMeL = CN[C@@H](CC(C)C)C(=O)O; NMeV = CN[C@H](C(=O)O)C(C)C; d(β3hA) = C[C@@H](N)CC(=O)O; Morpholide = C1CN(*)CCO1; NMeA = CN[C@@H](C)C(=O)O; NMeAib = CNC(C)(C)C(=O)O; Nle = CCCC[C@H](N)C(=O)O; Piperidide = C1CCN(*)CC1; Pra = C#CC[C@H](N)C(=O)O; dNMeA = CN[C@H](C)C(=O)O; Ac5c = NC1(C(=O)O)CCCC1; Aze = O=C(O)[C@@H]1CCN1; Abu = CC[C@H](N)C(=O)O; CF3 = FC(F)(F)*; Sar = CNCC(=O)O

Each compound was assayed on Human pancreatic cancer cell line AsPC-1 (G12D mutation Kras) (assay: AsPC-1 cell growth inhibition (AsPC-1 CGI)). Details: read-out: AsPC-1 cell growth inhibition, 50% growth inhibitory concentration (IC50 value); 96 hours, CellTiter-Glo, values classified in ranges.
Format: cell-based
Experimental: Test compounds were serially dilated with dimethyl sulfoxide, and 200 nL was then dispensed to a U-bottom 96-well plate using Labcyte Echo. […] The cell suspension was dispensed to a. plate containing a test compound at 100 μL per well and incubated at 37° C. in a 5% carbon dioxide gas incubator. 96 hours later, 80 μL of CellTiter-Glo (Promega) was added to each well and fluorescence was measured.

`CC[C@H](C)[C@@H]1NC(=O)[C@H](C)N(C)C(=O)C[C@@H](C)NC(=O)[C@H](C2CCCC2)N(C)C(=O)C2(CCCC2)NC(=O)[C@@H]2CCCN2C(=O)[C@H](CCc2ccc(C(F)(F)F)c(Cl)c2)NC(=O)[C@@H](C)N(C)C(=O)[C@H](Cc2ccc(C(F)(F)F)cc2)N(C)C(=O)[C@@H]2CCN2C(=O)CN(C)C1=O` [Compound 1507] (cyclo([Ac5c][NMeGly(cPent)][d(β3hA)][NMeA]I[Sar][Aze][NMePhe(4-CF3)][dNMeA][hPhe(3-Cl-4-CF3)]P)) and `CC[C@H](C)[C@@H]1NC(=O)[C@H](C)N(C)C(=O)C[C@@H](C)NC(=O)[C@H](C(C)C)N(C)C(=O)C2(CCCC2)NC(=O)[C@@H]2CCCN2C(=O)[C@H](CCc2ccc(C(F)(F)F)c(Cl)c2)NC(=O)[C@H]2CCCN2C(=O)[C@H](Cc2ccccc2)N(C)C(=O)[C@@H]2CCCN2C(=O)CN(C)C1=O` [Compound 1730] (cyclo([Ac5c][NMeV][d(β3hA)][NMeA]I[Sar]P[NMeF][dP][hPhe(3-Cl-4-CF3)]P)) cannot be ordered by pIC50: under 6.30 for the first, under 6.30 for the second.

`C#CC[C@@H]1NC(=O)[C@H](Cc2cccc(I)c2)NC(=O)CN(C)C(=O)[C@H](Cc2ccc(OC(F)(F)F)cc2)N(C)C(=O)CN(C)C(=O)CN(C)C(=O)[C@H]([C@@H](C)CC)NC(=O)[C@H](CC(C)C)N(C)C(=O)C[C@@H](C(=O)N2CCCCC2)N(C)C(=O)[C@H](CC(C)C)NC(=O)C(C)(C)N(C)C1=O` [Compound 1219] ([NMeL]I[Sar][Sar][NMeY](CF3)[Sar][Phe(3-I)][Pra][NMeAib]L[NMeD]-Piperidide; lactam N-11) and `CC[C@@H]1NC(=O)[C@H](Cc2cccc(I)c2)NC(=O)CN(C)C(=O)[C@H](Cc2ccc(Cl)cc2)N(C)C(=O)CN(C)C(=O)CN(C)C(=O)[C@H]([C@@H](C)CC)NC(=O)[C@H](CC(C)C)N(C)C(=O)C[C@@H](C(=O)N2CCCCC2)N(C)C(=O)[C@H](CC(C)C)NC(=O)C(C)(C)N(C)C1=O` [Compound 457] ([NMeL]I[Sar][Sar][NMePhe(4-Cl)][Sar][Phe(3-I)][Abu][NMeAib]L[NMeD]-Piperidide; lactam N-11) cannot be ordered by pIC50: under 6.30 for the first, under 6.30 for the second.

`CC[C@H](C)[C@@H]1NC(=O)[C@H](CC(C)C)N(C)C(=O)C[C@@H](C)NC(=O)[C@H](C(C)C)N(C)C(=O)C2(CCCC2)NC(=O)[C@@H]2CCCN2C(=O)[C@H](CCc2ccc(C(F)(F)F)c(Cl)c2)NC(=O)CN(C)C(=O)[C@H](Cc2cccc(Cl)c2)N(C)C(=O)CN(C)C(=O)CN(C)C1=O` [Compound 1623] (cyclo([Ac5c][NMeV][d(β3hA)][NMeL]I[Sar][Sar][NMePhe(3-Cl)][Sar][hPhe(3-Cl-4-CF3)]P)) and `CC[C@H](C)[C@@H]1NC(=O)[C@H](CC(C)C)N(C)C(=O)C[C@@H](C(=O)N2CCN(C3COC3)CC2)NC(=O)[C@H]([C@@H](C)CC)N(C)C(=O)C2(CCCC2)NC(=O)[C@@H]2CCCN2C(=O)[C@H](CCc2ccc(C(F)(F)F)c(Cl)c2)NC(=O)CN(C)C(=O)[C@H](CC2CCCCC2)N(C)C(=O)CN(C)C(=O)CN(C)C1=O` [Compound 1191] ([NMeL]I[Sar][Sar][NMeCha][Sar][hPhe(3-Cl-4-CF3)]P[Ac5c][NMeI]D-{Piperazinyl(4-(3-oxetanyl))}; lactam N-11) cannot be ordered by pIC50: under 6.30 for the first, under 6.30 for the second.

First: CC[C@H](C)[C@@H]1NC(=O)[C@H](CCC(C)C)N(C)C(=O)C[C@@H](C(=O)N2CCOCC2)N(C)C(=O)[C@H](C2CCCC2)N(C)C(=O)C2(CCCC2)NC(=O)[C@@H]2CCCN2C(=O)[C@H](CCc2ccc(C(F)(F)F)c(Cl)c2)NC(=O)CN(C)C(=O)[C@H](C2CCCC2)N(C)C(=O)[C@@H]2CCN2C(=O)[C@H](C)N(C)C1=O [Compound 1237] ([NMehLeu]I[NMeA][Aze][NMeGly(cPent)][Sar][hPhe(3-Cl-4-CF3)]P[Ac5c][NMeGly(cPent)][NMeD]-Morpholide; lactam N-11)
Second: CC[C@H](C)[C@@H]1NC(=O)[C@H](CC(C)C)N(C)C(=O)C[C@@H](C(=O)N(C)C)N(C)C(=O)[C@H](C2CCCC2)N(C)C(=O)C2(CCCC2)NC(=O)[C@H](Cc2ccccc2F)N(C)C(=O)[C@H](CCc2ccc(C(F)(F)F)c(Cl)c2)NC(=O)CN(C)C(=O)[C@H](CC2CCCCC2)N(C)C(=O)[C@@H]2CCN2C(=O)[C@H](C)N(C)C1=O [Compound 43] ([NMeL]I[NMeA][Aze][NMeCha][Sar][hPhe(3-Cl-4-CF3)][NMePhe(2-F)][Ac5c][NMeGly(cPent)][NMeD]-NMe2; lactam N-11)
The pIC50 of the first is higher: at least 7.70 for the first, under 6.30 for the second. The first is the more potent here.

Compared with `CCCC[C@@H]1NC(=O)[C@H](Cc2cccc(Br)c2)NC(=O)CN(C)C(=O)[C@H](Cc2ccc(Cl)cc2)N(C)C(=O)[C@@H]2CCN2C(=O)[C@H](C)N(C)C(=O)[C@H]([C@@H](C)CC)NC(=O)[C@H](CC(C)C)N(C)C(=O)C[C@@H](C(=O)N2CCCCC2)N(C)C(=O)[C@H](CC(C)C)NC(=O)C(C)(C)N(C)C1=O` [Compound 1415] ([NMeL]I[NMeA][Aze][NMePhe(4-Cl)][Sar][Phe(3-Br)][Nle][NMeAib]L[NMeD]-Piperidide; lactam N-11), `CC[C@H](C)[C@@H]1NC(=O)[C@H](CC(F)(F)F)N(C)C(=O)C[C@@H](C(=O)N2CCOCC2)N(C)C(=O)[C@H](C2CCCCC2)N(C)C(=O)C2(CCCC2)NC(=O)[C@@H]2CC(F)(F)CN2C(=O)[C@H](CCc2cc(F)c(C(F)(F)F)c(F)c2)NC(=O)CN(C)C(=O)[C@H](Cc2ccc(C(F)(F)F)cc2)N(C)C(=O)CN(C)C(=O)CN(C)C1=O` [Compound 1260] ([NMeAbu(4,4,4-F3)]I[Sar][Sar][NMePhe(4-CF3)][Sar][hPhe(3,5-F2-4-CF3)][Pro(4,4-F2)][Ac5c][NMeChg][NMeD]-Morpholide; lactam N-11) is higher in pIC50: under 6.30 for the first, at least 7.70 for the second.
